Measured values reported in publication PMC12563821 (International Journal of Molecular Sciences, 2025).

Legend:
[1] = system: T1, Sirt5; test: Fluorescence-based Sirt5 subtype selectivity assay (Reaction Biology); assay type: biochemical; settings: 50 µM inhibitor, duplicate, relative to no-inhibitor control
T1 construct: consisting of amino acids 37–310 (C-terminal); His-tag (N); purchased Reaction Biology Corporation (Malvern, PA, USA), in-house enzyme of the contract laboratory; host or cells: E. coli
Procedure: The determination of the inhibitory potency and corresponding subtype selectivity of the synthesized hybrid candidates was performed by Reaction Biology Cooperation (Malvern, PA, USA) using a fluorescence-based assay (Table 1).
Sirtuin assays. The biological activity of the test substances against the respective sirtuin enzymes was evaluated by means of a fluorescence-based assay performed by Reaction Biology Corporation (Malvern, PA, USA). The sirtuin enzymes used in the assays were all obtained from in-house sources at Reaction Biology Corporation (Malvern, PA, USA). Sirt1, with accession number NM_012238, includes amino acids 1–747 (C-terminal) and is tagged with an N-terminal His-tag. Sirt1 was expressed in E. coli and purified to greater than 85% as confirmed by SDS-PAGE and is supplied as a solution in 50 mM Tris/HCl (pH 7.5), 100 mM NaCl, and 10% glycerol (v/v). Sirt2 (accession number NM_012237), comprising amino acids 50–389 (C-terminal), features an N-terminal His-tag and was expressed in E. coli and finally purified to over 90% by SDS-PAGE. Sirt2 is provided in a buffer containing 50 mM Tris/HCl (pH 7.5), 500 mM NaCl, 1 mM TCEP, and 10% glycerol (v/v). Sirt3, with accession number NM_012239.3, spans amino acids 101–399 and is tagged with an N-terminal GST and expressed in E. coli and purified to greater than 85% purity by SDS-PAGE. Sirt3 is supplied in 50 mM Tris/HCl (pH 7.5), 500 mM NaCl, and 10% glycerol (v/v). Sirt5 (accession number NM_012241), consisting of amino acids 37–310 (C-terminal) and tagged with an N-terminal His-tag, was expressed in E. coli, purified to greater than 95% purity by SDS-PAGE and delivered as a solution in 50 mM Tris/HCl (pH 7.5), 500 mM NaCl, 1 mM TCEP, and 10% glycerol (v/v). All proteins were provided in purified forms for use in the assays. The respective internal assay protocol is outlined in the following: After the test substances (dissolved in DMSO) were incubated with the desired sirtuin enzyme in assay buffer (Tris-HCl, pH = 8) for 10 min at 30 °C, a substrate mixture consisting of a 7-amino-4-methylcoumarin-linked fluorogenic peptide substrate (p53 residues 379–382) and the cofactor NAD^+ was added. After 2 h of incubation at 30 °C, the universal inhibitor nicotinamide was added in excess to completely stop the deacetylation reaction, followed by the addition of a protease-based developer to release 7-amino-4-methylcoumarin, resulting in characteristic fluorescence, which was measured after 1 h at 30 °C (excitation/emission = 360/460). A no-inhibitor control was implemented, serving as a reference for 100% enzyme activity. […] Three individual IC50 values per test compound were calculated from the corresponding three dilution series fluorescence data using sigmoidal curve fitting in Prism 8.0.2 (GraphPad Software, Boston, MA, USA), and these were averaged to determine the mean IC50 value along with the standard deviation. To assess the selectivity against Sirt1, Sirt3, and Sirt5, a 50 µM concentration of the test compound was tested in duplicate, and the inhibitory activity was expressed as the mean of the duplicates in percentage of enzyme activity, including standard deviation, relative to the no-inhibitor control (representative 100% enzyme activity).

[2] = MTT-based cell viability assay; set-up: species or system human; settings: human; HL-60 cells, 24 h incubation, MTT; read-out: IC50 acute cytotoxicity
Procedure: (§1) The SirReal-based Sirt2 inhibitors (FM345, FM352, FM358, FM368, RW-93, RW-95 and RW-99) were tested for potential acute cytotoxicity to human cells in an MTT-based cell viability assay. […] HL-60 cells were treated with the corresponding Sirt2 inhibitors at various concentrations and then incubated for 24 h. […] Representative cell viability results following treatment with RW-93 are shown in Figure S1 of the Supplementary Materials.
(§2) Cell viability assay. The cytotoxicity of the Sirt2 inhibitors was determined using a colorimetric MTT assay following Mosmann’s protocol. HL-60 cells (purchased from DSMZ (German Collection of Microorganisms and Cell Cultures, Deutsche Sammlung von Mikroorganismen und Zellkulturen GmbH, Braunschweig, Germany) were cultivated in RPMI medium with 10% fetal bovine serum at 37 °C with 5% CO2 atmosphere. The cells were then seeded in a 96-well plate with a concentration of 9 x 10^4 cells/well and a well volume of 99 µL. The cells were further incubated at 37 °C with 5% CO2 atmosphere for 24 h. The cells were then treated with 1 µL solution of Sirt2 inhibitors in various concentrations, which were prepared from 10 mM or 20 mM DMSO stock solutions. Negative controls were treated with 1 µL DMSO and positive controls with 1 µL of 1% Triton-X solution. Three technical replicates were performed. After incubation for 24 h, 10 µL MTT (5.0 mg/mL in PBS) were added to each well and the cells were incubated at 37 °C with 5% CO2 atmosphere for 2 h. Then 190 µL DMSO were added to each well and the plate shaken at room temperature at 600 rpm for 1 h with light exclusion. The absorbance of the MTT metabolite formazan was measured at 570 nm using the MRX Microplate Reader (Dynex Technologies, Chantilly, VA, USA). The means of the corresponding triplicates were calculated and set in relation to the 1% DMSO negative controls. The data was processed using Prism 8.0.2 (GraphPad Software, Boston, MA, USA) software and a logarithmic sigmoidal curve fitting for the calculation of the respective IC50 values was performed.

[3] = system: HL-60 cells; test: MTT-based cell viability assay; set-up: species or system human
Procedure: as §1, §2

Compound | Residual Enzyme Activity [%] ± SD Sirt5 [1] | IC50 at 24 h [2] | changes in cell viability relative to DMSO control ([3]; HL-60 cells, MTT, up to 200 µM, three technical replicates) | acute toxicity to human cells ([3]; MTT assay)
Cc1cc(C)nc(SCC(=O)Nc2ncc(COc3cccc4ccccc34)s2)n1 [FM368, 2-((4,6-Dimethylpyrimidin-2-yl)thio)-N-(5-((naphthalen-1-yloxy)methyl)thiazol-2-yl)acetamide] | 89.1 ± 1.4% | > 50 µM | – | –
Cc1cc(C)nc(SCC(=O)Nc2ncc(COc3ccc(NC(=O)c4cnn(C)c4)cc3)s2)n1 [FM358, N-(4-((2-(2-((4,6-Dimethylpyrimidin-2-yl)thio)acetamido)thiazol-5-yl)methoxy)-phenyl)-1-methyl-1H-pyrazole-4-carboxamide] | 79.8 ± 0.6% | > 50 µM | – | –
Cc1cc(C)nc(SCC(=O)Nc2ncc(COc3ccc(NC(=O)c4cnn(C)c4)c(Br)c3)s2)n1 [RW-93, N-(2-Bromo-4-((2-(2-((4,6-dimethylpyrimidin-2-yl)thio)acetamido)thiazol-5-yl)-methoxy)phenyl)-1-methyl-1H-pyrazole-4-carboxamide] | 53.0 ± 0.2% | > 50 µM | No signiﬁcant changes | ruled out
Cc1cc(C)nc(SCC(=O)Nc2ncc(COc3ccccc3)s2)n1 [FM345, 2-((4,6-Dimethylpyrimidin-2-yl)thio)-N-(5-(phenoxymethyl)thiazol-2-yl)acetamide] | 94.6 ± 2.3% | > 50 µM | – | –
Cc1cc(C)nc(SCC(=O)Nc2ncc(COc3ccc(NC(=O)c4cnn(C)c4)c(I)c3)s2)n1 [RW-95, N-(4-((2-(2-((4,6-Dimethylpyrimidin-2-yl)thio)acetamido)thiazol-5-yl)methoxy)-2-iodophenyl)-1-methyl-1H-pyrazole-4-carboxamide] | 48.2 ± 1.8% | > 50 µM | – | –
Cc1cc(C)nc(SCC(=O)Nc2ncc(COc3ccc(NC(=O)c4cccs4)cc3)s2)n1 [FM352, N-(4-((2-(2-((4,6-Dimethylpyrimidin-2-yl)thio)acetamido)thiazol-5-yl)methoxy)phenyl)thiophene-2-carboxamide] | 75.6 ± 1.1% | > 50 µM | – | –
